pIC50: −log10 of the molar value. Where two headings read alike, the source gives them in different places.

Consider 32 molecules from patent EP0589039A1, “[…] DERIVATIVE AND PHARMACEUTICAL PREPARATION CONTAINING THE SAME” (Asahi Kasei Kogyo Kabushiki Kaisha, priority 1991, dated 1992).

In test [1] the test system is human breast cancer cell line MCF-7. The experiment in a line: Growth inhibition of human breast cancer cell MCF-7 (Methylene Blue staining). In kind it is cell-based. Particulars: read-out: Growth inhibition of MCF-7 (human breast cancer cells) (IC₅₀). As for the experimental part:
(Growth inhibition of human breast cancer cell MCF-7)
Effect of the compound of the present invention on breast cancer were examined using a human breast cancer cell line MCF-7. Predetermined dilutions of each compound of the present invention were added to a 96 well microtiter plate purchased from Falcon, and the cancer cells were inoculated into each well with a inoculum size of 10³ cells per well (10⁴ cells in the case of 100 nM estrogen (E)). The thus prepared plate was supplied with RPMI 1640 medium which has been supplemented with 5% of fetal bovine serum and further with a predetermined amount of estrogen, and incubated at 37°C for 6 days (3 days in the case of 100 nM estrogen) in the presence of 5% CO₂. Thereafter, viable cells were fixed with glutaraldehyde and stained with Methylene Blue to measure absorbance at 665 nm.

The subject of test [2] is human breast cancer cultured cell line ZR-75-1. As to the kind of experiment: Growth inhibition of human breast cancer cultured cell line ZR-75-1 (Methylene Blue staining). Type of test: cell-based. The conditions noted are these: 120 h, ZR-75-1, 10⁻⁹ mole of estrogen, 5 days, read-out: IC₅₀. The procedure:
Effect of the triphenylalkene derivative of the present invention on breast cancer were examined using a human breast cancer cultured cell line ZR-75-1. Predetermined dilutions of each triphenylalkene derivative of the present invention were added to a 96 well microtiter plate purchased from Falcon, and the cancer cells were inoculated into each well with a inoculum size of 2 x 10³ cells per well. The thus prepared plate was supplied with RPMI 1640 medium which has been supplemented with 10% of fetal bovine serum and further with 10⁻⁹ mole of estrogen, and incubated at 37°C for 5 days in the presence of 5% CO₂. Thereafter, viable cells were fixed with glutaraldehyde, stained with Methylene Blue and then extracted with 0.33 N of hydrochloric acid to measure absorbance at 665 nm. […]

A further test has as its system osteoporosis model rats. As to the kind of experiment: Inhibition of decrease in bone density in ovariectomized osteoporosis model rats. Type of test: in vivo, Fisher rats. Particulars: 400 µg/kg orally once a day for 4 months. The procedure:
Effect of the compound of the present invention to inhibit decrease in the bone density was evaluated using osteoporosis model rats. […] The remaining 8 rats were subjected to sham operation and used as a control group (Group C). […] After completion of the administration, the left side femur of each rat was excised to measure its volume (V) and dry weight (W) to calculate a bone density (D) based on a formula, D = W/V [formula] . […]

Setting [3] is: MCF7, 144 h, 1 nM added amount of E (estrogen), 6 days.
[4] abbreviates: MCF7, 144 h, 0.1 nM added amount of E (estrogen), 6 days.
[5] abbreviates: MCF7, 72 h, 100 nM added amount of E (estrogen), 3 days, 10⁴ cells per well.

`CCC(=C(c1ccc(O)cc1)c1ccc(OCCN(C)C)cc1)c1ccc2c(c1)OCO2` [Compound 20, (E·Z)-1-[4-(2-dimethylaminoethoxy)phenyl]-1-(4-hydroxyphenyl)-2-(3,4-methylenedioxyphenyl)-1-butene]: the pIC50 in test [1] (setting [3]) was 6.72.

Turning to `CCC(=C(c1ccc(O)cc1)c1ccc(OC(CN(C)C)CN(C)C)cc1)c1ccc2c(c1)OCO2` [Compound 18, (E·Z)-1-[4-(1,3-bisdimethylamino-2-propoxy)-phenyl]-1-(4-hydroxyphenyl)-2-(3,4-methylenedioxyphenyl)-1-butene], the pIC50 in test [1] (setting [3]) is 6.37.

Consider `CCC(=C(c1ccccc1)c1ccc(OC(CN(C)C)CN(C)C)cc1)c1ccccc1` [Compound 35], for which the pIC50 in test [1] (setting [3]) was 5.72.

For the molecule `CCC(=C(c1ccc(OCCN(C)C)cc1)c1cccc(C=NO)c1)c1ccccc1` [Compound 23, 2-[4-[1-(3-hydroxyiminomethylphenyl)-2-phenyl-1-butenyl]phenoxy]-N,N-dimethylamine], the pIC50 in test [1] (setting [3]) is 5.17.

Turning to `CCNCC(O)COc1ccc(C(=C(CC)c2ccc3c(c2)OCO3)c2ccc(O)cc2)cc1` (stereo not drawn) [Compound 11, (E·Z)-1-[4-(3-ethylamino-2-hydroxypropoxy)-phenyl]-1-(4-hydroxyphenyl)-2-(3,4-methylenedioxyphenyl)-1-butene], the pIC50 in test [1] (setting [3]) is 7.30; in test [2], 5.80.

Take `CCC(=C(c1ccc(C=NO)cc1)c1ccc(OCCN(C)C)cc1)c1ccccc1` [Compound 21, 2-[4-[1-(4-hydroxyiminomethylphenyl)-2-phenyl-1-butenyl]phenoxy]-N,N-dimethylethylamine]: in test [1] (setting [3]), the pIC50 was 5.34.

Consider `CCC(=C(c1ccc(O)cc1)c1ccc(OCC(O)CNC2CCCCC2)cc1)c1ccccc1` (stereo not drawn) [Compound 8, (E·Z)-1-[4-(3-cyclohexylamino-2-hydroxypropoxy)-phenyl]-1-(4-hydroxyphenyl)-2-phenyl-1-butene], for which the pIC50 in test [1] (setting [3]) was 6.21; in test [2] it was 5.85.

For the molecule `CCC(=C(c1ccccc1)c1ccc(OCC(O)CNC2CCCCC2)cc1)c1ccc2c(c1)OCO2` (stereo not drawn) [Compound 38], the pIC50 in test [1] (setting [4]) is 6.68.

For the molecule `CCC(=C(c1ccc(O)cc1)c1ccc(OCC(O)CN(C)C)cc1)c1ccccc1` (stereo not drawn) [Compound 7, (E·Z)-1-[4-(3-dimethylamino-2-hydroxypropoxy)-phenyl]-1-(4-hydroxyphenyl)-2-phenyl-1-butene], the pIC50 in test [1] (setting [3]) is 6.68.

As for `CCC(=C(c1ccc(O)cc1)c1ccc(OCC(O)CN(C)C)cc1)c1ccc2c(c1)OCO2` (stereo not drawn) [Compound 1, (E·Z)-1-[4-(3-dimethylamino-2-hydroxypropoxy)-phenyl]-1-(4-hydroxyphenyl)-2-(3,4-methylenedioxyphenyl)-1-butene], in the test with osteoporosis model rats (compared with Tamoxifen), the “inhibition of decrease in the bone density caused by the ovariectomy” value is given as “significantly inhibited decrease in the bone density”. In the test with osteoporosis model rats (left femur, D = W/V, ovariectomized rats), this molecule returned a Bone density of 1.0312.

Turning to `CCC(=C(c1ccc(O)cc1)c1ccc(OCCNC2CCCCC2)cc1)c1ccc2c(c1)OCO2` [Compound 19, (E·Z)-1-[4-(2-cyclohexylaminoethoxy)phenyl]-1-(4-hydroxyphenyl)-2-(3,4-methylenedioxyphenyl)-1-butene], the pIC50 in test [1] (setting [3]) is 6.80.

For `CCNCC(O)COc1ccc(/C(=C(/CC)c2ccccc2)c2ccccc2)cc1` (stereo not drawn) [Compound 13, (Z)-1-[4-(3-ethylamino-2-hydroxypropoxy)phenyl]-1,2-diphenyl-1-butene], the pIC50 in test [1] (setting [3]) was 5.27.

For the molecule `CCC(=C(c1ccccc1)c1ccc(OCC(O)CN(C)CC)cc1)c1ccc2c(c1)OCO2` (stereo not drawn) [Compound 33], the pIC50 in test [1] (setting [4]) was 6.22.

On to `CCC(=C(c1ccccc1)c1ccc(OCC(O)CNC2CCCC2)cc1)c1ccccc1` (stereo not drawn) [Compound 40], for which the pIC50 in test [1] (setting [5]) is 5.57.

As for `CC/C(=C(\c1ccccc1)c1ccc(OCC(O)CNC2CCCCC2)cc1)c1ccccc1` (stereo not drawn) [Compound 12, (Z)-1-[4-(3-cyclohexylamino-2-hydroxypropoxy)-phenyl]-1,2-diphenyl-1-butene], the pIC50 in test [1] (setting [3]) is 5.92; in test [2] it was 5.85.

With `CCC(=C(c1ccccc1)c1ccc(OCC(O)CN(C)C)cc1)c1ccc2c(c1)OCO2` (stereo not drawn) [Compound 34], the pIC50 in test [1] (setting [5]) is 4.99; in test [1] (setting [3]), 5.20.

For `CCC(=C(c1ccc(O)cc1)c1ccc(OCC(O)CN(CC)CC)cc1)c1ccc2c(c1)OCO2` (stereo not drawn) [Compound 2, (E·Z)-1-[4-(3-diethylamino-2-hydroxypropoxy)-phenyl]-1-(4-hydroxyphenyl)-2-(3,4-methylenedioxyphenyl)-1-butene], in test [1] (setting [3]), the pIC50 is 7.22.

`CCC(=C(c1ccccc1)c1ccc(OCC(O)CNC2CCCCC2)cc1)c1ccccc1` (stereo not drawn) [Compound 39]: in test [1] (setting [5]), the pIC50 was 5.25.

As to `CCC(=C(c1ccccc1)c1ccc(OC(CN(CC)CC)CN(CC)CC)cc1)c1ccccc1` [Compound 36], in test [1] (setting [3]), the pIC50 was 5.80.

In the case of `CCC(=C(c1ccc(O)cc1)c1ccc(OCC(O)CNC2CCCCC2)cc1)c1ccc2c(c1)OCO2` (stereo not drawn) [Compound 9, (E·Z)-1-[4-(3-cyclohexylamino-2-hydroxypropoxy)-phenyl]-1-(4-hydroxyphenyl)-2-(3,4-,methylenedioxyphenyl)-1-butene], the pIC50 in test [1] (setting [3]) is 6.34; in test [2], 6.02.

For the molecule `CCC(=C(c1ccccc1)c1ccc(OCC(O)CNC2CCC2)cc1)c1ccccc1` (stereo not drawn) [Compound 41], the pIC50 in test [1] (setting [5]) is 5.47.

On to `CC/C(=C(\c1ccccc1)c1ccc(OCC(O)CNC(C)C)cc1)c1ccccc1` (stereo not drawn) [Compound 14, (Z)-1-[4-(3-isopropylamino-2-hydroxypropoxy)-phenyl]-1,2-diphenyl-1-butene], for which, in test [1] (setting [4]), the pIC50 was 6.39.

For `CCC(=C(c1ccc(OCOC)cc1)c1ccc(OCC(O)CN(C)C)cc1)c1ccc2c(c1)OCO2` (stereo not drawn) [Compound 32], the pIC50 in test [1] (setting [5]) was 5.42.

In the case of `CCC(=C(c1ccc(OCC(CN(C)C)OC(C)=O)cc1)c1ccc(OC(C)=O)cc1)c1ccc2c(c1)OCO2` (stereo not drawn) [Compound 15, (E·Z)-1-[4-(3-dimethylamino-2-acetoxypropoxy)-phenyl]-1-(4-acetoxyphenyl)-2-(3,4-methylenedioxyphenyl)-1-butene], in test [1] (setting [3]), the pIC50 is 6.51.

Regarding `CCC(=C(c1ccc(O)cc1)c1ccc(OC(CN(CC)CC)CN(CC)CC)cc1)c1ccc2c(c1)OCO2` [Compound 37], the pIC50 in test [1] (setting [3]) was 7.22.

On to `CCC(=C(c1ccccc1)c1ccc(OCC(O)CN(C)C)cc1)c1ccccc1` (stereo not drawn) [Compound 30], for which the pIC50 in test [1] (setting [3]) was 5.48.

`CC/C(=C(\c1ccccc1)c1ccc(OCC(O)CN(C)C)cc1)c1ccc2c(c1)OCO2` (stereo not drawn) [Compound 6, (Z)-1-[4-(3-dimethylamino-2-hydroxypropoxy)-phenyl]-1-phenyl-2-(3,4-methylenedioxyphenyl)-1-butene]: the pIC50 in test [1] (setting [3]) was 5.74.

Regarding `CCC(=C(c1ccc(O)cc1)c1ccc(OCC(O)CN(C)C2CCCCC2)cc1)c1ccc2c(c1)OCO2` (stereo not drawn) [Compound 4, (E·Z)-1-[4-(3-cyclohexylmethylamino-2-hydroxypropoxy)phenyl]-1-(4-hydroxyphenyl)-2-(3,4-methylenedioxyphenyl)-1-butene], the pIC50 in test [1] (setting [3]) was 6.68.

In the case of `CCC(=C(c1ccc(O)cc1)c1ccc(OCC(CN(C)C)OC(C)=O)cc1)c1ccc2c(c1)OCO2` (stereo not drawn) [Compound 16, (E·Z)-1-[4-(3-dimethylamino-2-acetoxypropoxy)-phenyl]-1-(4-hydroxyphenyl)-2-(3,4-methylenedioxyphenyl)-1-butene], in test [1] (setting [3]), the pIC50 was 6.80.

Take `CCC(=C(c1ccc(O)cc1)c1ccc(OCC(O)CN(C)CC)cc1)c1ccc2c(c1)OCO2` (stereo not drawn) [Compound 3, (E·Z)-1-[4-(3-ethylmethylamino-2-hydroxypropoxy)phenyl]-1-(4-hydroxyphenyl)-2-(3,4-methylenedioxyphenyl)-1-butene]: the pIC50 in test [1] (setting [3]) is 7.00.

Consider `CCC(=C(c1ccc(C=NOC)cc1)c1ccc(OCCN(C)C)cc1)c1ccccc1` [Compound 22, 2-[4-[1-(4-methoxyiminomethylphenyl)-2-phenyl-1-butenyl]phenoxy]-N,N-dimethylamine], for which the pIC50 in test [1] (setting [3]) was 5.15.

Take `CCC(=C(c1ccc(O)cc1)c1ccc(OCC(O)CNC)cc1)c1ccc2c(c1)OCO2` (stereo not drawn) [Compound 10, (E·Z)-1-[4-(3-methylamino-2-hydroxypropoxy)-phenyl]-1-(4-hydroxyphenyl)-2-(3,4-,methylenedioxyphenyl)-1-butene]: the pIC50 in test [1] (setting [3]) is 6.30; in test [2], 6.06.
